The source made the active and inactive calls. No cut-off for these calls is given here.
Assays:
[1] = Cytotoxicity against human HOS cells; assay type: cell-based
[2] = biological target: C-X-C chemokine receptor type 4 (Homo sapiens) (UniProt P61073); assay: Antagonist activity at CXCR4 by noncompetitive binding assay
[3] = system: Human immunodeficiency virus 1; assay: Antiviral activity against HIV1 3B infected in human HOS cells; assay type: functional, organism-based; settings: Human immunodeficiency virus 1, 3B
[4] = system: Human immunodeficiency virus 1; assay: Ratio of AMD070 IC50 to compound IC50 for HIV1 3B infected in human HOS cells; assay type: functional

Chain of C-X-C chemokine receptor type 4 (Homo sapiens) (P61073 whole entry): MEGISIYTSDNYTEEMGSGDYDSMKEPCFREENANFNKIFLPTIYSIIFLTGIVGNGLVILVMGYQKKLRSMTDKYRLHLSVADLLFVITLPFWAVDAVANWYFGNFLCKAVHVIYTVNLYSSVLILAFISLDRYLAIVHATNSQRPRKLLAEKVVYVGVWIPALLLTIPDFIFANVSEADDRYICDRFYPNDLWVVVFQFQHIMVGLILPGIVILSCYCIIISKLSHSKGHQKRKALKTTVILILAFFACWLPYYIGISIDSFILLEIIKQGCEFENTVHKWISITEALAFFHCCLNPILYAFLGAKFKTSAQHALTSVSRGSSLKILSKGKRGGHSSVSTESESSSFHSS

SMILES | CC50 [1] [nM] | Activity [2] | IC50 [3] [nM] | Ratio IC50 [4]
CN(Cc1nc2c(CCCN)cccc2[nH]1)C1CCCc2cccnc21 (stereo not given) | 10000 | – | – | –
CN(Cc1nc2cccc(C(=O)NCCc3cnc[nH]3)c2[nH]1)C1CCCc2cccnc21 (stereo not given) | > 10000 | Active | 19 | –
CN(Cc1nc2cccc(CN3CCNCC3)c2[nH]1)C1CCCc2cccnc21 (stereo not given) | – | Active | 13 | –
CN(Cc1nc2cccc(N3CCNCC3)c2[nH]1)C1CCCc2cccnc21 (stereo not given) | – | Active | 6 | –
CN(Cc1nc2c(CCCN3CCCC3)cccc2[nH]1)C1CCCc2cccnc21 (stereo not given) | 8200 | – | – | –
CN(Cc1nc2cccc(C(=O)NCCN)c2[nH]1)C1CCCc2cccnc21 (stereo not given) | – | Active | 27 | –
CN(Cc1nc2cccc(CNCCN)c2[nH]1)C1CCCc2cccnc21 (stereo not given) | > 20000 | Active | 540 | –
CN(Cc1nc2cccc(CN)c2[nH]1)C1CCCc2cccnc21 (stereo not given) | > 20000 | Active | 1300 | –
CN1CCN(C(=O)c2cccc3[nH]c(CN(C)C4CCCc5cccnc54)nc23)CC1 (stereo not given) | > 10000 | – | – | –
NCCCCN(Cc1nc2ccccc2[nH]1)[C@H]1CCCc2cccnc21 [MAVORIXAFOR] | > 10000 | Active | 10 | –
CN1CCN(C(=O)c2cccc3nc(CN(C)C4CCCc5cccnc54)[nH]c23)CC1 (stereo not given) | – | Active | 33 | –
CN(Cc1nc2c(CNCCc3c[nH]cn3)cccc2[nH]1)C1CCCc2cccnc21 (stereo not given) | > 20000 | – | – | –
CN(Cc1nc2cccc(CCCN3CCCC3)c2[nH]1)C1CCCc2cccnc21 (stereo not given) | – | Active | 23 | –
CN(Cc1nc2ccccc2n1CCCNC(=O)C(F)(F)F)C1CCCc2cccnc21 (stereo not given) | 10400 | Active | 243 | –
CN(Cc1nc2ccccc2n1CCCCCN)C1CCCc2cccnc21 (stereo not given) | 4500 | Active | 228 | –
CN(Cc1nc2cccc(CCCN)c2[nH]1)C1CCCc2cccnc21 (stereo not given) | – | Active | 24 | –
CN(C)CCCn1c(CN(C)C2CCCc3cccnc32)nc2ccccc21 (stereo not given) | 16800 | Active | 17 | –
CN(Cc1nc2cccc(C(=O)NCCCN)c2[nH]1)C1CCCc2cccnc21 (stereo not given) | > 20000 | Active | 134 | –
CN1CCN(c2cccc3nc(CN(C)[C@H]4CCCc5cccnc54)[nH]c23)CC1 | 12500 | Active | 0.6 | –

SMILES | CC50 [1] [nM] | Activity [2] | IC50 [3] [nM] | Ratio IC50 [4]
CN(Cc1nc2c(N3CCNCC3)cccc2[nH]1)C1CCCc2cccnc21 (stereo not given) | > 20000 | – | – | –
CN(Cc1nc2cccc(N3CCN(C(=O)OC(C)(C)C)CC3)c2[nH]1)C1CCCc2cccnc21 (stereo not given) | > 10000 | Active | 271 | –
CN(Cc1nc2c(C(=O)NCCN)cccc2[nH]1)C1CCCc2cccnc21 (stereo not given) | > 10000 | – | – | –
CN(Cc1nc2ccccc2n1CCCCN)C1CCCc2cccnc21 (stereo not given) | 2900 | Active | 144 | –
CN(Cc1nc2c(CN3CCNCC3)cccc2[nH]1)C1CCCc2cccnc21 (stereo not given) | 12000 | – | – | –
CN(Cc1nc2cccc(CNCCc3cnc[nH]3)c2[nH]1)C1CCCc2cccnc21 (stereo not given) | – | Active | 41 | –
CN1CCN(c2cccc3nc(CN(C)[C@@H]4CCCc5cccnc54)[nH]c23)CC1 | 12300 | Active | 6.9 | –
CN(C)CCCc1cccc2nc(CN(C)C3CCCc4cccnc43)[nH]c12 (stereo not given) | – | Active | 22 | –
CN1CCN(c2cccc3nc(CN(C)C4CCCc5cccnc54)[nH]c23)CC1 (racemic) | 14000 | Active | 2 | 10
CN(Cc1nc2cccc(C(=O)NCCCCN)c2[nH]1)C1CCCc2cccnc21 (stereo not given) | > 20000 | Active | 396 | –
CN(Cc1nc2cccc(C(=O)N3CCNCC3)c2[nH]1)C1CCCc2cccnc21 (stereo not given) | > 20000 | Active | 46 | –
CN(Cc1nc2ccccc2n1CCN)C1CCCc2cccnc21 (stereo not given) | > 20000 | Active | 197 | –
CN(Cc1nc2ccccc2n1CCCNC(=N)N)C1CCCc2cccnc21 (stereo not given) | > 20000 | Active | 26 | –
CN(Cc1nc2ccccc2n1CCCN)C1CCCc2cccnc21 (stereo not given) | > 20000 | Active | 44 | –
CN(Cc1nc2cccc(CCCN3CCCCC3)c2[nH]1)C1CCCc2cccnc21 (stereo not given) | – | Active | 25 | –
CN(C)CCCc1cccc2[nH]c(CN(C)C3CCCc4cccnc43)nc12 (stereo not given) | 7500 | – | – | –
CN(Cc1nc2c(CCCN3CCCCC3)cccc2[nH]1)C1CCCc2cccnc21 (stereo not given) | 8700 | – | – | –
CN(Cc1nc2ccccc2[nH]1)C1CCCc2cccnc21 (stereo not given) | 5300 | Active | 1350 | –

Reference: ChEMBL document CHEMBL1155333, “Amine substituted N-(1H-benzimidazol-2ylmethyl)-5,6,7,8-tetrahydro-8-quinolinamines as CXCR4 antagonists with potent activity against HIV-1” (Bioorg Med Chem Lett, 2009)
